Read-outs that look alike come from different tables or passages of the source. One block for each compound: values may come before it.
Legend:
L1210 cells [1] = assay: L1210 tumor cell proliferation assay (Coulter counter); details: for inhibition at 0.041 µM: read-out: % inhibition of L1210 cell proliferation; for IC50: read-out: IC50, inhibition of L1210 cell proliferation; for concentration giving almost total (maximal) inhibition of proliferation and viability: growth and viability
Protocol: (§1) FIG. 1. […] For tumor cell growth and viability, L1210 cells were respectively seeded in triplicate at initial densities of 1×10^4 and 1.11×10^4 cells/0.5 ml/well in RPMI 1640 medium containing 7.5% FCS and penicillin (100 IU/ml)-streptomycin (100 μg/ml), and grown for 4 days in the presence or absence (control) of 256 nM concentrations of the indicated compounds in a humidified incubator at 37° C. with 5% CO2 in air. Cell density was monitored using a Coulter counter. […] The ability of viable cells/0.5 ml to bioreduce 0.1 ml of MTS:PMS (20:1) reagent over a 3-h incubation period at 37° C. was assessed by measuring the absorbamce of the water-soluble formazan products at A490 nm.
FIG. 3. […] The protocol of the experiment was identical to that of FIG. 1. […] Drug concentrations are plotted on a logarithmic scale.
(§2) TT0 was purchased from Aldrich (Milwaukee, Wis.). All solutions of synthetic TTs and tricyclic pyrone H10, vincristine (VCR; a gift from Lilly Researeh Laboratories, Indianapolis, Ind.) and camptothecin (CPT; from Sigma Chemical Co., St Louis, Mo.) were dissolved and diluted in dimethyl sulfoxide (DMSO), whereas daunomycin (DAU) (from Sigma) solutions were prepared in 0.1 M potassium phosphate buffer, pH 7.4, containing 0.9% NaCl. Suspension cultures of murine L1210 lymphocytic leukemia cells (American Type Culture Collection, Rockville, Md.) were maintained in continuous exponential growth by twice-a-week passage in RPMI 1640 medium supplemented with 7.5% fortified bovine calf serum (FCS; HyClone Laboratories, Logan, Utah) and penicillin (100 IU/ml)-streptomycin (100 μg/ml), and incubated in the presence or absence of drugs at 37° C. in a humidified atmosphere containing 5% CO2. […] Control cells incubated in the absence of drugs were similarly treated with vehicle only and, in every experiment, all incubates received the same volume of solvent. For drug removal, incubates were spun at 200×g for 10 min, drug-containing supernatants were discarded, and intact cells were washed thrice with 1 ml of the above RPMI 1640 culture medium and resuspended in 0.5 ml of fresh medium for further incubation.
For tumor cell growth, L1210 cells were resuspended in fresh FCS-containing RPMI 1640 medium, plated at an initial density of 1×10^4 cells/0.5 ml, and incubated in 48-well Costar cell culture plates (Costar, Cambridge, Mass.). Except when otherwise specified, cells were grown for 4 days in the presence or absence of drugs and their density was monitored every 24 h using a Coulter counter (Coulter Electronics, Luton Beds, UK).

L1210 cells [2] = assay: cells; details: for cytotoxicity at 0.041 µM: read-out: % inhibition of L1210 cell viability; for inhibitory effect on L1210 cell viability: 256 nM, 4 days
Protocol: as §1
FIG. 4. […] Cells were seeded in triplicate at initial densities of 100,000 or 11,100 cells/0.5 ml/well and respectively incubated for 2 or 4 days in the presence or absence (control) of the indicated concentrations of drugs, which are plotted on a logarithmic scale. The ability of viable cells/0.5 ml to bioreduce 0.1 ml of MTS:PMS (20:1) reagent over a 3-h incubation period was assessed as described in FIG. 1.
as §2
L1210, HL-60-S, HL60-RV and HL-60-R8 cells suspended in FCS-containing RPMI 1640 medium were grown in 48-well Costar cell culture plates for up to 4 days in the presence or absence of drugs to evaluate drug cytotoxicity.

HL-60-S cells = assay: Nucleoside transport in HL-60-S cells; format: cell-based, human; details: for IC50: 15-min preincubation, 30 s
Source text: FIG. 15. Comparison of the concentration-dependent inhibitions of the cellular transport of purine (A) and pyrimidine (B) nucleosides by DAU (open symbols) and TT2 (closed symbols) in HL-60-S (circles), HL-60-RV (squares) and HL-60-R8 (triangles) cells in vitro. Results are expressed as % of ^3H-adenosine (26,032±2,239 cpm, 100±9%, striped area in A) and ^3H-thymidine (17,934±1,398 cpm, 100±8%, striped area in B) transported into vehicle-treated control cells over 30 s.
The MDR HL-60-RV and HL-60-R8 cells were developed in Melvin S. Center's laboratory (Kansas State University) and similarly maintained in RPMI 1640 medium in the absence of drugs (Marsh W, et al, Cancer Res 46: 4053-4057, 1986; McGrath T et al, and Center M S: Biochem Biophys Res Commun 145: 1171-1176, 1987; Marsh W and Center M S: Cancer Res 47: 5080-5086, 1987; McGrath T, et al, Biochem Pharmacol 38: 3611-3619, 1989; Marquardt D, et al, Cancer Res 50: 1426-1430, 1990; Marquardt D and Center M S: J Natl Cancer Inst 83: 1089-1109, 1991; Krishnamachary N and Center M S; Cancer Res 53: 3658-3661, 1993). Every 4 weeks, these HL-60-RV and HL-60-R8 sublines were exposed to 41 nM DAU for 48 h to stabilize their MDR phenotype. This concentration of DAU, which is not cytotoxic to MDR HL-60 sublines, was removed from the culture medium at least 48 h before experimentation. […] RFs were determined by dividing the IC50 of the MDR cells by that of the sensitive WT parent cell line.
L1210 cells (about 1.5×10^6 cells/0.5 ml) were preincubated for 15 min at 37° C. in the presence or absence of TTs and then exposed to 1 μCi of ^3H-thymidine for only 30 sec to assess the cellular uptake of nucleoside over such very short period of time. […] Cell lysates were mixed with 9 ml of Bio-Safe II (Researeh Products International) and counted to estimate the cellular uptake of ^3H-thymidine. Drug inhibition was expressed as % of ^3H-thymidine or ^3H-adenosine transported into vehicle-treated control cells over similar 30-sec period.

[3] = read-out: IC50 (concentration inhibiting by 50% the viability of L1210 leukemic cells), day 4, Table 2 series

SMILES: COc1cccc2c1C(=O)c1c(O)c3c(c(O)c1C2=O)C[C@@](O)(C(C)=O)C[C@@H]3O[C@H]1C[C@H](N)[C@H](O)[C@H](C)O1 [DAU, daunomycin, reference compound]
- times DAU is more cytostatic than TT2 (L1210 cells [1]; L1210, from IC50 values): about 6 times
- times DAU is more cytostatic/cytotoxic than TT2 (L1210 cells [1]; L1210, growth and viability, 4 days): 3.5-6 times
- inhibition at 0.041 µM (L1210 cells [1]; Mus musculus, L1210, 48 h): 42%
- IC50 (L1210 cells [1]; Mus musculus, L1210, 48 h): 50 nM
- inhibition at 0.041 µM (L1210 cells [1]; Mus musculus, L1210, 96 h): 77%
- IC50 (L1210 cells [1]; Mus musculus, L1210, 96 h): 25 nM
- concentration giving almost total (maximal) inhibition of proliferation and viability (L1210 cells [1]; day 4): 102 nM
- times DAU is more cytotoxic than TT2 (L1210 cells [2]): about 3.5 times
- cytotoxicity at 0.041 µM (L1210 cells [2]; Mus musculus, L1210, 48 h): 32%
- IC50 (L1210 cells [2]; Mus musculus, L1210, 48 h, read-out: IC50, inhibition of L1210 cell viability): 70 nM
- cytotoxicity at 0.041 µM (L1210 cells [2]; Mus musculus, L1210, 96 h): 65%
- IC50 (L1210 cells [2]; Mus musculus, L1210, 96 h, read-out: IC50 (concentration inhibiting by 50% the viability of L1210 leukemic cells)): 41 nM
- IC50 (L1210 cells [2]; Mus musculus, L1210, 96 h, read-out: IC50, inhibition of L1210 cell viability): 30 nM
- effect on nucleoside transport in WT HL-60-S cells (HL-60-S cells): fails to significantly inhibit

- IC50 (L1210 cells [2]; [3]): 270 nM
- IC50 (L1210 cells [2]; read-out: IC50, inhibition of L1210 cell viability, day 2): 250 nM
- IC50 (L1210 cells [2]; read-out: IC50, inhibition of L1210 cell viability, day 4): 100 nM
- IC50 (HL-60-S cells; purine nucleoside, read-out: IC50, cellular transport of 3H-adenosine in HL-60-S cells): 3300 nM
- IC50 (HL-60-S cells; pyrimidine nucleoside, read-out: IC50, cellular transport of 3H-thymidine in HL-60-S cells): 2000 nM
SMILES: COC1=CC(=O)C2=C(C1=O)C1C3=C(C(=O)C=CC3=O)C2c2ccccc21 (stereo not drawn) [TT2, 2-Methoxy-9,10-dihydro-9,10-[1′,2′]benzenoanthracene-1,4,5,8-tetraone]
- times DAU is more cytostatic/cytotoxic than TT2 (L1210 cells [1]): 3.5-6 times
- % inhibition of L1210 cell proliferation (L1210 cells [1]; 256 nM TT2, day 2): 44%
- % inhibition of L1210 cell growth (cytostatic) (L1210 cells [1]; 256 nM, 4 days, 0.256 µM): 68%
- concentration giving almost total (maximal) inhibition of proliferation and viability (L1210 cells [1]; day 4): ≥ 640 nM
- IC50 (L1210 cells [1]; day 2): 300 nM
- IC50 (L1210 cells [1]; day 4): 150 nM

SMILES: COC(=O)C1=C(C(=O)OC)C[C@H]2C(=O)C3=C(C(=O)[C@H]2C1)C1C2=C(C(=O)[C@H]4CC(C(=O)OC)=C(C(=O)OC)C[C@H]4C2=O)C3c2ccccc21 [TT4, (4aS*,7aR*,11aS*,14aR*)-Tetramethyl 1,4,4a,5,6,7,7a,8,11,11a,12,13,14,14a-tetradecahydro-5,7,12,14-tetraoxo-6,13-[1′,2′]benzenopentacene-2,3,9,10-tetracarboxylate]
- inhibitory effect on L1210 cell growth (L1210 cells [1]; 256 nM, 4 days): inactive
- inhibitory effect on L1210 cell viability (L1210 cells [2]): inactive

SMILES: COC(=O)C1=C(C(=O)OC)C[C@H]2[C@@H](C1)[C@@H](O)C1=C(C3C4=C(C1c1ccccc13)[C@@H](O)[C@H]1CC(C(=O)OC)=C(C(=O)OC)C[C@H]1[C@H]4O)[C@H]2O [TT12, (4aS*,5S*,7R*,12S*,14R*,7aR*,11aS*,14aR*)-Tetramethyl 1,4,4a,5,6,7,7a,8,11,11a,12,13,14,14a-tetradecahydro-5,7,12,14-tetrahydroxy-6,13-[1′,2′]benzenopentacene-2,3,9,10-tetracarboxylate]
- inhibitory effect on L1210 cell growth (L1210 cells [1]; 256 nM, 4 days): inactive
- inhibitory effect on L1210 cell viability (L1210 cells [2]): inactive

- IC50 (L1210 cells [2]; [3]): 300 nM
SMILES: COC1=C(Br)C(=O)C2=C(C1=O)C1C3=C(C(=O)C=C(N(C)C)C3=O)C2c2ccccc21 (stereo not drawn) [TT16, 2-Bromo-3-methoxy-6-(dimethylamino)-9,10-dihydro-9,10-[1′,2′]benzenoanthracene-1,4,5,8-tetraone]
